According to patent US10208011B2, “Benzothiophene estrogen receptor modulators” (G1 Therapeutics, Inc., priority 2017, dated 2019):

Experiments:
[1] = molecular target: estrogen receptor α in MCF7 cells (Homo sapiens (Human), UniProt P03372); test: Estrogen Receptor (ER) Degradation Assay (In-Cell Western); format: cell-based; settings: for IC50: 24 hours, In-Cell Western; for % Estrogen Receptor Remaining: vehicle set to 100%
Procedure: A screening strategy was implemented utilizing an In-Cell Western assay to measure their ability to degrade the estrogen receptor in vitro. MCF7 cells, which are estrogen receptor positive, were plated at a cell density of […] into black walled clear bottom 96-well plates. Cells were incubated in phenol red free Dulbecco's Modified Eagle Media (DMEM) supplemented with 8% charcoal-stripped fetal bovine calf serum for 24 hours in a humidified 37° C. incubator. Concentrated stock compounds were diluted to 10× in complete media. Compounds were added to the plated cells in a dose-dependent manner ranging from 1E-12 to 1E-05 M and incubated for an additional 24 hours at 37° C. Culture medium was removed from the culture plates by gentle inversion. Cells were fixed in 4% paraformaldehyde in 1× phosphate buffered saline-calcium magnesium free (PBS-CMF) for 15 minutes at room temperature, washed 3 times for 5 minutes each in 1×PBS-CMF. Cells were permeabilized in immunofluorescence (IF) blocking buffer (Cell Signaling #12411) containing 0.3% Triton X100. Cells were washed 3 times for 5 minutes each in 1×PBS-CMF and incubated in estrogen receptor α (D6R2W) rabbit primary antibody (Cell Signaling #13258) diluted 1:300 in IF antibody dilution buffer (Cell Signaling #12378). Cells were washed 3 times for 5 minutes each in 1×PBS-CMF and stained with goat anti-rabbit (Biotium #CF770) secondary antibody diluted 1:2000 in IF antibody dilution buffer and normalizing stain CellTag 700 diluted 1:500 (Licor #926-41090). ER protein expression was assessed by the Licor Odyssey CLx imaging system using Image Studio v5.2. Data is processed utilizing GraphPad Prism 7 by subtracting background from the vehicle and setting the vehicle to 100% ER activity, followed by comparing treated samples to vehicle. This procedure was used to produce the graph in FIG. 2, FIG. 3, FIG. 4, FIG. 5, FIG. 6, FIG. 7, and FIG. 8.
(§1) In the below table for the Estrogen Receptor Degradation Assay and the Human ERα Reporter Assay: […]

[2] = molecular target: human estrogen receptor (ERα) (Homo sapiens (Human), UniProt P03372); test: Human ERα Reporter Assay (Indigo Biosciences); format: cell-based; settings: antagonist mode, 17β-estradiol 8E-10 M, 24 hours
Chain of human estrogen receptor (ERα) (P03372 whole entry): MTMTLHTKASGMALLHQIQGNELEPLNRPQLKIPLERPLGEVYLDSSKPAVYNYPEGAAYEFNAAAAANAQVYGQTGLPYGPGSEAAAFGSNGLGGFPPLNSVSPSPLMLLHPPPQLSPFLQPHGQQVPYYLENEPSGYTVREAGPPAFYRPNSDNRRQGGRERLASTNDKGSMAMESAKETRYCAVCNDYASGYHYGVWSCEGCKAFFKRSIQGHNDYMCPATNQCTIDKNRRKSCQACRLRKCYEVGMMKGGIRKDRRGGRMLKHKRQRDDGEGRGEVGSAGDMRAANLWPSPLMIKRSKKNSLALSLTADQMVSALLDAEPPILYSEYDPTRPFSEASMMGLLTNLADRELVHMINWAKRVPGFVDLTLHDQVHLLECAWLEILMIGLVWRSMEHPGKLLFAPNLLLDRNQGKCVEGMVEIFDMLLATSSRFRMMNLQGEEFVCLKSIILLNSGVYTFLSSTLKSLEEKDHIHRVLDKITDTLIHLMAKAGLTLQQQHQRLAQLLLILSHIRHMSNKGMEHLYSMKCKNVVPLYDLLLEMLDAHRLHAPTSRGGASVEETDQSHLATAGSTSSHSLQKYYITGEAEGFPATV
Procedure: All reagents used in this assay was supplied in the Human ERα Reporter Assay by Indigo Biosciences # IB00401. In an effort to screen selective estrogen receptor degraders (SERDs), the Human ERα Reporter Assay, supplied by Indigo Biosciences, was utilized to quantify antagonist functional activity against the human estrogen receptor. Reporter cells were thawed at 37° C. and added to pre-warmed to 37° C. cell recovery medium (CRM). Stock concentration of 17β-estradiol was serially diluted in CRM. Diluted 17β-estradiol was added to CRM containing reporter cells resulting in a working concentration of 1.6 nM (2×). Cells plus 17β-estradiol were dispensed in a kit-supplied white walled 96-well plate. Concentrated stocks of test compounds were diluted to 2× working concentrations in cell screening medium (CSM). 2× concentrated compounds were added to the plated cells in a dose-dependent manner resulting in a final concentration range of 1E-11 to 1E-5 M and a final 17β-estradiol concentration of 8E-10 M. Assay plates were incubated for 24 hours in a humidified 37° C. incubator. Culture medium was removed from the assay plates by inversion. Detection substrate and buffer was warmed to room temperature, mixed thoroughly, and immediately added to the assay plates. Assay plates were incubated for 15 minutes at room temperature protected from light. Luminescence was measured in a Synergy HTX luminescence plate reader. Data is processed utilizing GraphPad Prism 7 by graphing the relative light units measured at each compound concentration. This procedure was used to produce the graph in FIG. 1, FIG. 9, FIG. 10, FIG. 11, FIG. 12, FIG. 13, and FIG. 14.
as §1

Chain of estrogen receptor α in MCF7 cells (P03372 whole entry): as above

CCN(CC)CCc1ccc(Oc2c(C(=O)c3c(C)cc(F)cc3C)sc3cc(O)ccc23)cc1 [Compound 112, (3-(4-(2-(diethylamino)ethyl)phenoxy)-6-hydroxybenzo[b]thiophen-2-yl)(4-fluoro-2,6-dimethylphenyl)methanone]
IC50 [1]: < 1000 nM
% Estrogen Receptor Remaining [1]: *** (*** denotes 41-70% Estrogen Receptor remaining)
IC50 [2]: < 1000 nM

Cc1cc(F)cc(C)c1C(=O)c1sc2cc(O)ccc2c1Oc1ccc(CCNC(C)C)cc1 [Compound 105, (4-fluoro-2,6-dimethylphenyl)(6-hydroxy-3-(4-(2-(isopropylamino)ethyl)phenoxy)benzo[b]thiophen-2-yl)methanone]
IC50 [1]: < 50000 nM
% Estrogen Receptor Remaining [1]: **** (**** denotes 0-40% Estrogen Receptor remaining)
IC50 [2]: < 1000 nM

Cc1cc(F)cc(C)c1C(=O)c1sc2cc(O)ccc2c1-c1ccc(CCN2CC(CF)C2)cc1 [Compound 119, (4-fluoro-2,6-dimethylphenyl)(3-(4-(2-(3-(fluoromethyl)azetidin-1-yl)ethyl)phenyl)-6-hydroxybenzo[b]thiophen-2-yl)methanone]
IC50 [1]: < 1000 nM
% Estrogen Receptor Remaining [1]: *** (*** denotes 41-70% Estrogen Receptor remaining)
IC50 [2]: < 1000 nM

Cc1cc(F)cc(C)c1C(=O)c1sc2cc(O)ccc2c1-c1ccc(OCCN2CCC(CF)CC2)cc1 [Compound 124, (4-fluoro-2,6-dimethylphenyl)(3-(4-(2-(4-(fluoromethyl)piperidin-1-yl)ethoxy)phenyl)-6-hydroxybenzo[b]thiophen-2-yl)methanone]
IC50 [1]: < 1000 nM
% Estrogen Receptor Remaining [1]: *** (*** denotes 41-70% Estrogen Receptor remaining)
IC50 [2]: < 50000 nM
